# Test results: patent publication US8414926B1, “Nanoparticles with covalently bound surfactant for drug delivery” (University of South Florida, priority 2006, dated 2013)
# Structures can show the parent of a compound that is named as a salt.
# Tested on: human dermal fibroblasts
# Assay: Effect of surfactant combined with control nanoparticles on fibroblasts
# Assay type: cell-based
# Details: for toxicity to fibroblasts: combined with control nanoparticles, human dermal fibroblasts
# Procedure: FIG. 1 is a graph showing the effect of dodecyl sulfate combined with control nanoparticles against human dermal fibroblasts.
# The control nanoparticles were added to the wells as an emulsion having 5% solid content, which reduced the amount of surfactant to 0.75%; therefore, more surfactant was added to the emulsion prior to placement in the cell-containing wells in order to reach the designated amounts of surfactant being tested. […] This may be due to interactions of the surfactant with the nanoparticles, which may prohibit the surfactant from interacting with the cells.
compound,measurement,setting,value
CCCCCCCCCCCCOS(=O)(=O)O [dodecyl sulfate],toxicity to fibroblasts,1% surfactant,least toxic
same,toxicity to fibroblasts,9% surfactant,kills all of the cells
same,toxicity to fibroblasts combined with control nanoparticles versus without control nanoparticles,healthy fibroblasts,much less toxic
